{"source": "patent US20240239808A1", "about": "(Forma Therapeutics, Inc., priority 2021, published 2024)", "data": [{"target": "T1, USP1, construct USP1 (1-785, GG670, 671AA)/UAF1 (1-677)-Flag (Homo sapiens, UniProt O94782, G670A/G671A)", "T1 construct": "USP1, construct USP1 (1-785, GG670, 671AA)/UAF1 (1-677)-Flag; Viva; purchased Viva", "T1 sequence (O94782 whole entry G670A/G671A)": "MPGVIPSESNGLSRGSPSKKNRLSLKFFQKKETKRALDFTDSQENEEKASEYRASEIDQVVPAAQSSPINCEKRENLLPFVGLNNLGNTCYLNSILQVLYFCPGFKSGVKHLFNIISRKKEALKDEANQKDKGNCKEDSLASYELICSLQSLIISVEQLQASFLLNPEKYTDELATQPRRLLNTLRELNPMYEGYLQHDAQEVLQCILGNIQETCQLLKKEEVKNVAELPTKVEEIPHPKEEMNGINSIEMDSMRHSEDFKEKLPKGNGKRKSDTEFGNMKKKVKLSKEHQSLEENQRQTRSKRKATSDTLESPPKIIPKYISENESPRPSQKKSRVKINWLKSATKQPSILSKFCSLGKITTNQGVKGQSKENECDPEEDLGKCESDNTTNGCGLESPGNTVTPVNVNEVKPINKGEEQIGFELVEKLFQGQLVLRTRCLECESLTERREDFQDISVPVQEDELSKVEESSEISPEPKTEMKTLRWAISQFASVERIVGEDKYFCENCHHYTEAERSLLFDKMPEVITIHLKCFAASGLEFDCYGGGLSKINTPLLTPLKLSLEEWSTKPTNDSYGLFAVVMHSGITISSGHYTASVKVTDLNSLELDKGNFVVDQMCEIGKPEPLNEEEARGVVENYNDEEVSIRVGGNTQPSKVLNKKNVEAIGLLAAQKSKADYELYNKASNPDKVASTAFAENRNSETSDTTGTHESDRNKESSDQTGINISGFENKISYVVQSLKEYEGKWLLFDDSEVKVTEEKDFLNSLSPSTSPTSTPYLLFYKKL", "T1 sequence (Q8TAF3 whole entry partner)": "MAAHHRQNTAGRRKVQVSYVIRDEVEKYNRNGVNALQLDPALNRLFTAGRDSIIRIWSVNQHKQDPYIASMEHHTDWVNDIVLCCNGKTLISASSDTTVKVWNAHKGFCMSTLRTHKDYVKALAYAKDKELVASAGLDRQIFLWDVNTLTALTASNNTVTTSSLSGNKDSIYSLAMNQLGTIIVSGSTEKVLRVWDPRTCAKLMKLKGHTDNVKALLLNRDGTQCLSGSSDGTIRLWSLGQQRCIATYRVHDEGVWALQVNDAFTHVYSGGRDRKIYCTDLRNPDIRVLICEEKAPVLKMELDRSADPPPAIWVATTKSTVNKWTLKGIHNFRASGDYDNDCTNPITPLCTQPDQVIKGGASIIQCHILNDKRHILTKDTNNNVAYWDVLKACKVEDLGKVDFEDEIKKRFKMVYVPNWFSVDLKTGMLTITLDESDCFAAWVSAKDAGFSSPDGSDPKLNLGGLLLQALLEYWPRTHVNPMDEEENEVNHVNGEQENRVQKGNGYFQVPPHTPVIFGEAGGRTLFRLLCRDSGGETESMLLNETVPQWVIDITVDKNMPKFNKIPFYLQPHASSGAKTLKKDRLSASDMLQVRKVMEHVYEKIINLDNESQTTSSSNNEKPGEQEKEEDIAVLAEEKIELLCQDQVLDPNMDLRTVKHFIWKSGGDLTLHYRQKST", "assay": "Ubiquitin-Rhodamine 110 assay for USP1 activity", "assay_type": "biochemical", "conditions": "enzyme 25 pM, Ub-Rh110 25 nM, 30 minutes preincubation, 8- or 10-point dilution", "protocol": "Example A: Ubitquin-Rhodamine 110 Assay for USP1 Activity\nThe HTS assay was performed in a final volume of 20 μL in assay buffer containing 20 mM Tris-HCl (pH 8.0, (1M Tris-HCl, pH 8.0 solution; Corning 46-031-CM)), 2 mM CaCl2) (1M Calcium Chloride solution; Sigma #21114) 1 mM GSH (L-Glutathione reduced; Sigma #G4251), 0.01% Prionex ([…] filtered, Sigma #G-0411), and 0.01% Triton X-100. Stock compound solutions were stored at −20° C. as 10 mM in DMSO. Up to 1 month prior to the assay, 2 mM test compounds were pre-dispensed into assay plates (Black, low volume; Corning #3820) and frozen at −20° C. Pre-stamped assay plates were allowed to come to room temperature on the day of the assay. For the screen, 100 nL of 2 mM was pre-dispensed for a final screening concentration of 10 μM (DMSO(fc)=0.5%). The final concentration of the enzyme (USP1, construct USP1 (1-785, GG670, 671AA)/UAF1 (1-677)-Flag; Viva) in the assay was 100 pM. Final substrate (Ub-Rh110; Ubiquitin-Rhodamine 110, R&D Systems #U-555) concentration was 25 nM with [Ub-Rh110]<<Km. 10 μL of 2× enzyme was added to assay plates (pre-stamped with compound) either simultaneously with 2×Ub-Rh110 or preincubated with USP1 40 minutes prior to the addition of 10 μL of 2×Ub-Rh110 to compound plates. Plates were incubated stacked for 45 minutes at room temperature before fluorescence was read on the Envision (Excitation at 485 nm and Emission at 535 nm; Perkin Elmer) or on the PheraSTAR (Excitation at 485 nm and Emission at 535 nm; BMG Labtech).\nNanoliter quantities of either an 8-point or 10-point, 3-fold serial dilution in DMSO were pre-dispensed into assay plates (Perkin Elmer, ProxiPlate-384 F Plus, #6008269) for a final test concentration range of either 25 μM to 11 nM or 25 μM to 1.3 nM, respectively. The final concentration of the enzyme (USP1, construct USP1 (1-785, GG670, 671AA)/UAF1 (1-677)-Flag; Viva) in the assay was 25 pM. Final substrate (Ub-Rh110; Ubiquitin-Rhodamine 110, R&D Systems #U-555) concentration was 25 nM with [Ub-Rh110]<<Km. 5 μL of 2× enzyme was added to assay plates (pre-stamped with compound) preincubated with USP1 for 30 minutes and then 5 μL of 2×Ub-Rh110 was added to assay plates. Plates were incubated stacked for 20 minutes at room temperature before 5 μL of stop solution (final concentration of 10 mM citric acid in assay buffer (Sigma, #251275-500G)). Fluorescence was read on the Envision (Excitation at 485 nm and Emission at 535 nm; Perkin Elmer) or on the PheraSTAR (Excitation at 485 nm and Emission at 535 nm; BMG Labtech).\nFor both assay formats data were reported as percent inhibition compared with control wells based on the following equation: % inh=[1−((FLU−AveLow)/(AveHigh−AveLow))]×100 where FLU=measured Fluorescence, AveLow=average Fluorescence of no enzyme control (n=16), and AveHigh=average Fluorescence of DMSO control (n=16). IC50 values were determined by curve fitting of the standard 4 parameter logistic fitting algorithm included in the Activity Base software package: IDBS XE Designer Model205. Data is fitted using the Levenburg Marquardt algorithm.", "units": {"IC50": "nM"}, "values": [{"smiles": "CC(C)c1ccccc1-c1ncc2sc(=O)n(Cc3ccc(-c4nc(C(F)(F)F)cn4C)cc3)c2n1", "note": "[Example I-1, 5-(2-isopropylphenyl)-3-(4-(1-methyl-4-(trifluoromethyl)-1H-imidazol-2-yl)benzyl)thiazolo[4,5-d]pyrimidin-2(3H)-one]", "IC50": "≤ 10"}, {"smiles": "CC(C)c1ncccc1-c1ncc2c(n1)N(Cc1ccc(-c3nc(C(F)(F)F)cn3C)cc1)CCO2", "note": "[Example I-2, 3-[8-([4-[1-methyl-4-(trifluoromethyl)-1H-imidazol-2-yl]phenyl]methyl)-6H,7H,8H-pyrimido[5,4-b][1,4]oxazin-2-yl]-2-(propan-2-yl)pyridine]", "IC50": "≤ 10"}, {"smiles": "CC(C)c1ncccc1-c1ncc2c(n1)N(Cc1ccc(-c3nc(C(F)(F)F)cn3C)cc1)C(=O)CO2", "note": "[Example I-4, 8-([4-[1-methyl-4-(trifluoromethyl)-1H-imidazol-2-yl]phenyl]methyl)-2-[2-(propan-2-yl)pyridin-3-yl]-6H,7H,8H-pyrimido[5,4-b][1,4]oxazin-7-one]", "IC50": "10 to 100"}, {"smiles": "CC(C)c1ncccc1-c1ncc2c(n1)N(Cc1ccc(-c3nc(C(F)(F)F)cn3C)cc1)C(=O)C(C)(C)O2", "note": "[Example I-5, 6,6-dimethyl-8-([4-[1-methyl-4-(trifluoromethyl)-1H-imidazol-2-yl]phenyl]methyl)-2-[2-(propan-2-yl)pyridin-3-yl]-6H,7H,8H-pyrimido[5,4-b][1,4]oxazin-7-one]", "IC50": "10 to 100"}, {"smiles": "CC(C)c1ccccc1-c1ncc2c(n1)N(Cc1ccc(-c3nc(C(F)(F)F)cn3C)cc1)C(=O)N(C)C2", "note": "[Example I-6, 3-methyl-1-([4-[1-methyl-4-(trifluoromethyl)-1H-imidazol-2-yl]phenyl]methyl)-7-[2-(propan-2-yl)phenyl]-1H,2H,3H,4H-[1,3]diazino[4,5-d]pyrimidin-2-one]", "IC50": "10 to 100"}, {"smiles": "CC(C)c1ccccc1-c1ncc2c(n1)N(Cc1ccc(-c3nc(C(F)(F)F)cn3C)cc1)C(=O)OC2", "note": "[Example I-7, 1-([4-[1-methyl-4-(trifluoromethyl)-1H-imidazol-2-yl]phenyl]methyl)-7-[2-(propan-2-yl)phenyl]-1H,2H, 4H-pyrimido[4,5-d][1,3]oxazin-2-one]", "IC50": "≤ 10"}, {"smiles": "CC(C)c1ncccc1-c1ncc2c(n1)N(Cc1ccc(-c3nc(C(F)(F)F)cn3C)cc1)C(=O)OC2", "note": "[Example I-8, 1-([4-[1-methyl-4-(trifluoromethyl)-1H-imidazol-2-yl]phenyl]methyl)-7-[2-(propan-2-yl)pyridin-3-yl]-1H,2H, 4H-pyrimido[4,5-d][1,3]oxazin-2-one]", "IC50": "10 to 100"}, {"smiles": "CC(C)c1ncccc1-c1ncc2ccn(Cc3ccc(-c4nc(C(F)(F)F)cn4C)cc3)c2n1", "note": "[Example I-9, 3-[7-([4-[1-methyl-4-(trifluoromethyl)-1H-imidazol-2-yl]phenyl]methyl)-7H-pyrrolo[2,3-d]pyrimidin-2-yl]-2-(propan-2-yl)pyridine]", "IC50": "≤ 10"}, {"smiles": "CC(C)c1ncccc1-c1ncc2cnn(Cc3ccc(-c4nc(C(F)(F)F)cn4C)cc3)c2n1", "note": "[Example I-10, 3-[1-([4-[1-methyl-4-(trifluoromethyl)-1H-imidazol-2-yl]phenyl]methyl)-1H-pyrazolo[3,4-d]pyrimidin-6-yl]-2-(propan-2-yl)pyridine]", "IC50": "10 to 100"}, {"smiles": "CC(C)c1ncccc1-c1ncc2c(n1)N(Cc1ccc(-c3nc(C(F)(F)F)cn3C)cc1)C(=O)C21CC1", "note": "[Example I-11, 3′-([4-[1-methyl-4-(trifluoromethyl)-1H-imidazol-2-yl]phenyl]methyl)-5′-[2-(propan-2-yl)pyridin-3-yl]-2′,3′-dihydrospiro[cyclopropane-1,1′-pyrrolo[2,3-d]pyrimidine]-2′-one]", "IC50": "10 to 100"}, {"smiles": "CC(C)c1ccccc1-c1ncc2oc(=O)n(Cc3ccc(-c4nc(C(F)(F)F)cn4C)cc3)c2n1", "note": "[Example I-12, 5-(2-isopropylphenyl)-3-(4-(1-methyl-4-(trifluoromethyl)-1H-imidazol-2-yl)benzyl)oxazolo[4,5-d]pyrimidin-2(3H)-one]", "IC50": "≤ 10"}, {"smiles": "CC(C)c1ncccc1-c1ncc2oc(=O)n(Cc3ccc(-c4nc(C(F)(F)F)cn4C)cc3)c2n1", "note": "[Example I-13]", "IC50": "100 to 1000"}, {"smiles": "CC(C)c1ccccc1-c1ncc2nc(C3CNC3)n(Cc3ccc(-n4cccn4)cc3)c2n1", "note": "[Example I-14, 8-(azetidin-3-yl)-2-[2-(propan-2-yl)phenyl]-9-[[4-(1H-pyrazol-1-yl)phenyl]methyl]-9H-purine]", "IC50": "100 to 1000"}, {"smiles": "CC(C)c1ccccc1-c1ncc2nc(C3COC3)n(Cc3ccc(-n4cccn4)cc3)c2n1", "note": "[Example I-15, 8-(oxetan-3-yl)-2-[2-(propan-2-yl)phenyl]-9-[[4-(1H-pyrazol-1-yl)phenyl]methyl]-9H-purine]", "IC50": "100 to 1000"}, {"smiles": "CC(C)c1ncccc1-c1ncc2c(n1)N(Cc1ccc(-c3nc(C(F)(F)F)cn3C)cc1)C(=O)C2", "note": "[Example I-16, 7-([4-[1-methyl-4-(trifluoromethyl)-1H-imidazol-2-yl]phenyl]methyl)-2-[2-(propan-2-yl)pyridin-3-yl]-5H,6H,7H-pyrrolo[2,3-d]pyrimidin-6-one]", "IC50": "10 to 100"}, {"smiles": "COc1nc2cnc(-c3cccnc3C(C)C)nc2n1Cc1ccc(-c2nc(C(F)(F)F)cn2C)cc1", "note": "[Example I-17, 8-methoxy-9-([4-[1-methyl-4-(trifluoromethyl)-1H-imidazol-2-yl]phenyl]methyl)-2-[2-(propan-2-yl)pyridin-3-yl]-9H-purine]", "IC50": "100 to 1000"}, {"smiles": "CC(C)c1ccccc1-c1ncc2c(n1)N(Cc1ccc(-c3nc(C(F)(F)F)cn3C)cc1)C(=O)C2", "note": "[Example I-18, 7-([4-[1-methyl-4-(trifluoromethyl)-1H-imidazol-2-yl]phenyl]methyl)-2-[2-(propan-2-yl)phenyl]-5H,6H,7H-pyrrolo[2,3-d]pyrimidin-6-one]", "IC50": "≤ 10"}, {"smiles": "CC(C)c1ncccc1-c1ncc2c(n1)N(Cc1ccc(-c3nc(C(F)(F)F)cn3C3COC3)cc1)C(=O)C2", "note": "[Example I-19, 7-([4-[1-(oxetan-3-yl)-4-(trifluoromethyl)-1H-imidazol-2-yl]phenyl]methyl)-2-[2-(propan-2-yl)pyridin-3-yl]-5H,6H,7H-pyrrolo[2,3-d]pyrimidin-6-one]", "IC50": "100 to 1000"}, {"smiles": "CC(C)c1ncccc1-c1ncc2c(n1)N(Cc1ccc(-c3nc(C(F)(F)F)cn3C)cc1)C(=O)CC2", "note": "[Example I-20, 8-([4-[1-methyl-4-(trifluoromethyl)-1H-imidazol-2-yl]phenyl]methyl)-2-[2-(propan-2-yl)pyridin-3-yl]-5H,6H,7H,8H-pyrido[2,3-d]pyrimidin-7-one]", "IC50": "10 to 100"}, {"smiles": "COc1ncnc(C2CC2)c1-c1ncc2sc(=O)n(Cc3ccc(-n4nc(C(F)(F)F)cc4C)cc3)c2n1", "note": "[Example I-21, 5-(4-cyclopropyl-6-methoxypyrimidin-5-yl)-3-(4-(5-methyl-3-(trifluoromethyl)-1H-pyrazol-1-yl)benzyl)thiazolo[4,5-d]pyrimidin-2(3H)-one]", "IC50": "≤ 10"}, {"smiles": "COc1ncnc(C2CC2)c1-c1ncc2sc(=O)n(Cc3ccc(-c4nc(C(F)(F)F)cn4C)cc3)c2n1", "note": "[Example I-22, 5-(4-cyclopropyl-6-methoxypyrimidin-5-yl)-3-(4-(1-methyl-4-(trifluoromethyl)-1H-imidazol-2-yl)benzyl)thiazolo[4,5-d]pyrimidin-2(3H)-one]", "IC50": "≤ 10"}]}]}
